Results from patent US6943191B1, “Disubstituted lavendustin A analogs and pharmaceutical composition comprising the analogs” (The United States of America as represented by the …, priority 1998, dated 2005).

Assays:
Format in all cases: in vivo, human
MDA-MB-231 = assay: Hollow fiber assay in mice, MDA-MB-231; conditions: QD X 4, Day 4; for % T/C MDA-MB-231 IP: IP fibers; for % T/C MDA-MB-231 SC: SC fibers
Protocol: (§1) Compounds satisfying Formulas 1 and 2 also have been tested for in vivo activity in the hollow fiber assay. See Example 12 below for the procedure used for the in vivo tests. Each compound tested was tested against a minimum of 12 human cancer cell lines. Data is reported as % T/C (i.e., the […]) for each of the 2 compound doses against each of the cell lines with separate values calculated for the intraperitoneal and subcutaneous samples, with a target value for % T/C being about 50 or less.
(§2) Compounds were selected for further in vivo testing in standard subcutaneous xenograft models on the basis of several hollow fiber assay criteria. These criteria include: (1) a % T/C of 50 or less in 10 of the 48 possible test combinations (12 cell lines×2 sites×2 compound doses); (2) activity at a distance (intrapentoneal drug/subcutaneous culture) in a minimum of 4 of the 24 possible combinations; and/or (3) a net cell kill of 1 or more cell lines in either implant site. To simplify evaluation, a point system has been adopted which allows rapid assessment of a compound's activity. A value of 2 is assigned for each compound dose which results in a 50% or greater reduction in viable cell mass. The intraperitoneal and subcutaneous samples were scored separately so that criteria (1) and (2) could be evaluated. Compounds with a combined IP+SC score≧20, an SC score≧8, or a net cell kill of one or more cell lines were referred for xenograft testing. These criteria have been statistically validated by comparing the activity outcomes of greater than 80 randomly selected compounds in the hollow fiber assay and in the xenograft testing.
(§3) This example describes the method used for in vivo testing of mice. Human cancer cells were cultivated in polyvinylidene fluoride (PVDF) hollow fibers. A sample of each cancer cell line was implanted intraperitoneally and subcutaneously in mice. Each mouse received a total of 6 fibers, 3 intraperitoneally and 3 subcutaneously, representing 3 distinct cancer cell lines. Three mice were treated with compounds made according to the present invention at each of two test doses intraperitoneally using a QD×4 treatment schedule. […] Anticancer effects were assessed by determining viable cell mass for each of the coil line using a formazan dye (MTT) conversion assay. From this, the % TIC was calculated using the average optical density of the compound-treated samples divided by the average optical density of the vehicle controls. In addition, the net increase in cell mass was determined for each sample as samples of fiber cultures were assessed for viable cell mass on the day of implantation into mice. This allowed cytostatic and cytocidal capacities of these compounds to be assessed.

SW-620 = assay: Hollow fiber assay in mice, SW-620; conditions: QD X 4, Day 4; for % T/C SW-620 IP: IP fibers; for % T/C SW-620 SC: SC fibers
Protocol: as §1, §2, §3

NCI-H522 = assay: Hollow fiber assay in mice, NCI-H522; conditions: QD X 4, Day 4; for % T/C NCI-H522 IP: IP fibers; for % T/C NCI-H522 SC: SC fibers
Protocol: as §1, §2, §3

UACC-62 = assay: Hollow fiber assay in mice, UACC-62; conditions: QD X 4, Day 4; for % T/C UACC-62 IP: IP fibers; for % T/C UACC-62 SC: SC fibers
Protocol: as §1, §2, §3

U251 = assay: Hollow fiber assay in mice, U251; conditions: QD X 4, Day 4; for % T/C U251 IP: IP fibers; for % T/C U251 SC: SC fibers
Protocol: as §1, §2, §3

**Q.** `O=C(OC12CC3CC(CC(C3)C1)C2)c1ccc(NCc2cc(O)ccc2O)cc1` [Compound 6, 4′-adamantylbenzoate-1′-N-2,5-dihydroxybenzylamine] was tested. Which “% T/C MDA-MB-231 IP” value (MDA-MB-231; 33.50 mg/kg/dose IP) did it give?
**A.** Its value is greater than 100%.

**Q.** And the “% T/C MDA-MB-231 IP” value (MDA-MB-231; 50.00 mg/kg/dose IP)?
**A.** The value was greater than 100%.

**Q.** What about the “% T/C MDA-MB-231 SC” value (MDA-MB-231; 33.50 mg/kg/dose IP) of the same compound?
**A.** The value was 67%.

**Q.** What about the “% T/C MDA-MB-231 SC” value (MDA-MB-231; 50.00 mg/kg/dose IP) of the same compound?
**A.** Its value is 92%.

**Q.** What about the “% T/C SW-620 IP” value (SW-620; 33.50 mg/kg/dose IP) of the same compound?
**A.** The value was greater than 100%.

**Q.** And the “% T/C SW-620 IP” value (SW-620; 50.00 mg/kg/dose IP)?
**A.** The value was greater than 100%.

**Q.** And the “% T/C SW-620 SC” value (SW-620; 33.50 mg/kg/dose IP)?
**A.** Its value is 94%.

**Q.** What about the “% T/C SW-620 SC” value (SW-620; 50.00 mg/kg/dose IP) of the same compound?
**A.** Its value is 80%.

**Q.** And the “% T/C NCI-H522 IP” value (NCI-H522; 33.50 mg/kg/dose IP)?
**A.** The value was 94%.

**Q.** What about the “% T/C NCI-H522 IP” value (NCI-H522; 50.00 mg/kg/dose IP) of the same compound?
**A.** The value was 48%.

**Q.** And the “% T/C NCI-H522 SC” value (NCI-H522; 33.50 mg/kg/dose IP)?
**A.** Its value is 89%.

**Q.** And the “% T/C NCI-H522 SC” value (NCI-H522; 50.00 mg/kg/dose IP)?
**A.** The value was 89%.

**Q.** And the “% T/C UACC-62 IP” value (UACC-62; 33.50 mg/kg/dose IP)?
**A.** Its value is greater than 100%.

**Q.** And the “% T/C UACC-62 IP” value (UACC-62; 50.00 mg/kg/dose IP)?
**A.** Its value is greater than 100%.

**Q.** What about the “% T/C UACC-62 SC” value (UACC-62; 33.50 mg/kg/dose IP) of the same compound?
**A.** Its value is 99%.

**Q.** And the “% T/C UACC-62 SC” value (UACC-62; 50.00 mg/kg/dose IP)?
**A.** The value was 99%.

**Q.** And the “% T/C U251 IP” value (U251; 33.50 mg/kg/dose IP)?
**A.** The value was 100%.

**Q.** What about the “% T/C U251 IP” value (U251; 50.00 mg/kg/dose IP) of the same compound?
**A.** Its value is greater than 100%.

**Q.** What about the “% T/C U251 SC” value (U251; 33.50 mg/kg/dose IP) of the same compound?
**A.** Its value is greater than 100%.

**Q.** And the “% T/C U251 SC” value (U251; 50.00 mg/kg/dose IP)?
**A.** Its value is greater than 100%.
